Toxic doses and inconclusive results are not listed. Cut-off read from the data, not from the text of the source: active = T/C of 150% or more; inactive = T/C below 125%.
Tested on: L1210 leukemia ip in BDF1 mice, survival T/C
Experiment: NCI In Vivo Anticancer Drug Screen. Data for tumor model L1210 Leukemia (intraperitoneal) in B6D2F1 (BDF1) mice
Settings: endpoint: mean survival time, higher = longer survival
Procedure, shortened: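 Ratio derived from survival: compound-dosed mice over vehicle-dosed mice, all bearing a transplantable tumor.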

[1] = dose: 50.0 mg/kg/injection, schedule: Q01DX001 (ip), vehicle: carboxymethylcellulose (CMC)
[2] = dose: 100.0 mg/kg/injection, schedule: Q01DX001 (ip), vehicle: carboxymethylcellulose (CMC)
[3] = dose: 100.0 mg/kg/injection, schedule: Q04DX003 (ip), vehicle: Klucel (hydroxypropylcellulose) (HPC)
[4] = dose: 200.0 mg/kg/injection, schedule: Q01DX001 (ip), vehicle: carboxymethylcellulose (CMC)
[5] = dose: 200.0 mg/kg/injection, schedule: Q04DX003 (ip), vehicle: Klucel (hydroxypropylcellulose) (HPC)
[6] = dose: 400.0 mg/kg/injection, schedule: Q01DX001 (ip), vehicle: carboxymethylcellulose (CMC)
[7] = dose: 400.0 mg/kg/injection, schedule: Q04DX003 (ip), vehicle: Klucel (hydroxypropylcellulose) (HPC)
[8] = dose: 12.5 mg/kg/injection, schedule: Q04DX003 (ip), vehicle: Klucel (hydroxypropylcellulose) (HPC)
[9] = dose: 25.0 mg/kg/injection, schedule: Q04DX003 (ip), vehicle: Klucel (hydroxypropylcellulose) (HPC)
[10] = dose: 100.0 mg/kg/injection, schedule: Q04DX003 (ip), vehicle: saline
[11] = dose: 100.0 mg/kg/injection, schedule: Q01DX001 (ip), vehicle: saline
[12] = dose: 200.0 mg/kg/injection, schedule: Q01DX001 (ip), vehicle: saline
[13] = dose: 400.0 mg/kg/injection, schedule: Q01DX001 (ip), vehicle: saline
[14] = dose: 100.0 mg/kg/injection, schedule: Q01DX009 (ip), vehicle: saline
[15] = dose: 200.0 mg/kg/injection, schedule: Q01DX009 (ip), vehicle: saline
[16] = dose: 400.0 mg/kg/injection, schedule: Q01DX009 (ip), vehicle: saline
[17] = dose: 200.0 mg/kg/injection, schedule: Q04DX003 (ip), vehicle: saline
[18] = dose: 100.0 mg/kg/injection, schedule: Q01DX009 (ip), vehicle: Klucel (hydroxypropylcellulose) (HPC)
[19] = dose: 200.0 mg/kg/injection, schedule: Q01DX009 (ip), vehicle: Klucel (hydroxypropylcellulose) (HPC)
[20] = dose: 400.0 mg/kg/injection, schedule: Q01DX009 (ip), vehicle: Klucel (hydroxypropylcellulose) (HPC)

Measured: T/C

Cc1nc(N)[nH]c(=O)c1CCCNCc1ccccc1
inactive: dose: 100.0 mg/kg/injection, schedule: Q01DX001 (ip), vehicle: Klucel (hydroxypropylcellulose) (HPC) 96 % of control | dose: 200.0 mg/kg/injection, schedule: Q01DX001 (ip), vehicle: Klucel (hydroxypropylcellulose) (HPC) 94 % of control | dose: 400.0 mg/kg/injection, schedule: Q01DX001 (ip), vehicle: Klucel (hydroxypropylcellulose) (HPC) 94 % of control

Cc1ccccc1N=Nc1ccc(N(C)C)cc1
inactive: [1] 93 % of control | [2] 107 % of control | [3] 95 % of control | [4] 86 % of control | [5] 95 % of control | [6] 98 % of control | [7] 91 % of control

NC(=O)CCl
inactive: [8] 92 % of control | [9] 95 % of control | dose: 25.0 mg/kg/injection, schedule: Q04DX003 (ip), vehicle: saline 102 % of control | dose: 50.0 mg/kg/injection, schedule: Q04DX003 (ip), vehicle: Klucel (hydroxypropylcellulose) (HPC) 100 % of control | dose: 50.0 mg/kg/injection, schedule: Q04DX003 (ip), vehicle: saline 97 % of control | [3] 101 % of control | [10] 100 % of control

CCOC(=O)c1cc(OC)c[nH]1
inactive: dose: 50.0 mg/kg/injection, schedule: Q01DX001 (ip), vehicle: saline 100 % of control | [11] 94 % of control | [12] 88 % of control | [13] 105 % of control

c1csc(C[N+]23CN4CN(CN(C4)C2)C3)c1
inactive: [14] 92 % of control | [15] 103 % of control | [16] 101 % of control

CN(C)CCN(C)N=Nc1c(-c2cccs2)n[nH]c1C(F)(F)F
inactive: dose: 75.0 mg/kg/injection, schedule: Q01DX001 (ip), vehicle: other 94 % of control | dose: 150.0 mg/kg/injection, schedule: Q01DX001 (ip), vehicle: other 98 % of control | dose: 300.0 mg/kg/injection, schedule: Q01DX001 (ip), vehicle: other 93 % of control

CN(C)C(=C1C=CC=C1)N(C)C
inactive: dose: 20.0 mg/kg/injection, schedule: Q04DX003 (ip), vehicle: saline 101 % of control | dose: 40.0 mg/kg/injection, schedule: Q04DX003 (ip), vehicle: saline 96 % of control | dose: 80.0 mg/kg/injection, schedule: Q04DX003 (ip), vehicle: saline 92 % of control

CCNCCn1cccc1
inactive: dose: 50.0 mg/kg/injection, schedule: Q01DX009 (ip), vehicle: saline 97 % of control | [14] 100 % of control | [10] 97 % of control | [15] 97 % of control | [17] 100 % of control

CCCCCCCCCCCCSC1=NCCN1
inactive: [9] 100 % of control | dose: 45.0 mg/kg/injection, schedule: Q04DX003 (ip), vehicle: Klucel (hydroxypropylcellulose) (HPC) 95 % of control | dose: 87.5 mg/kg/injection, schedule: Q04DX003 (ip), vehicle: Klucel (hydroxypropylcellulose) (HPC) 100 % of control | dose: 88.0 mg/kg/injection, schedule: Q04DX003 (ip), vehicle: Klucel (hydroxypropylcellulose) (HPC) 103 % of control

CCCCCCn1c(O)c(C=N)c(=O)[nH]c1=O
inactive: [18] 100 % of control | [3] 93 % of control | [19] 99 % of control | [5] 100 % of control | [20] 97 % of control | [7] 94 % of control

c1nc2c([nH]1)CNCC2
inactive: [14] 94 % of control | [10] 100 % of control | [15] 93 % of control | [17] 98 % of control | [16] 94 % of control | dose: 400.0 mg/kg/injection, schedule: Q04DX003 (ip), vehicle: saline 108 % of control

Cn1c(=O)c2c(nc(OCC3CC4CCC3C4)n2C)n(C)c1=O (stereo unspecified)
inactive: [11] 96 % of control | [12] 108 % of control | [13] 108 % of control

Clc1c(CBr)ccc(CBr)c1Cl
inactive: dose: 6.25 mg/kg/injection, schedule: Q01DX009 (ip), vehicle: saline with Tween-80 91 % of control | dose: 6.25 mg/kg/injection, schedule: Q04DX003 (ip), vehicle: Klucel (hydroxypropylcellulose) (HPC) 95 % of control | dose: 12.5 mg/kg/injection, schedule: Q01DX009 (ip), vehicle: saline with Tween-80 89 % of control | [8] 92 % of control | dose: 25.0 mg/kg/injection, schedule: Q01DX009 (ip), vehicle: saline with Tween-80 96 % of control | [9] 93 % of control

CC(C)NC(=O)Nc1cccc(Cl)c1
inactive: dose: 100.0 mg/kg/injection, schedule: Q04DX003 (ip), vehicle: gum acacia 96 % of control | dose: 200.0 mg/kg/injection, schedule: Q04DX003 (ip), vehicle: gum acacia 94 % of control | dose: 400.0 mg/kg/injection, schedule: Q04DX003 (ip), vehicle: gum acacia 100 % of control

COc1ccccc1NS(=O)(=O)c1ccc(Cl)cc1
inactive: [18] 103 % of control | [19] 112 % of control | [20] 103 % of control

O=C(CC(NC(=O)OCc1ccccc1)C(=O)O)OCc1ccccc1 (stereo unspecified)
inactive: dose: 100.0 mg/kg/injection, schedule: Q01DX009 (ip), vehicle: saline sonified 95 % of control | dose: 100.0 mg/kg/injection, schedule: Q01DX009 (ip), vehicle: saline with Tween-80 103 % of control | dose: 100.0 mg/kg/injection, schedule: Q04DX003 (ip), vehicle: saline sonified 97 % of control | dose: 200.0 mg/kg/injection, schedule: Q01DX009 (ip), vehicle: saline sonified 94 % of control | dose: 200.0 mg/kg/injection, schedule: Q01DX009 (ip), vehicle: saline with Tween-80 94 % of control | dose: 200.0 mg/kg/injection, schedule: Q04DX003 (ip), vehicle: saline sonified 89 % of control | dose: 400.0 mg/kg/injection, schedule: Q01DX009 (ip), vehicle: saline sonified 90 % of control | dose: 400.0 mg/kg/injection, schedule: Q01DX009 (ip), vehicle: saline with Tween-80 94 % of control | dose: 400.0 mg/kg/injection, schedule: Q04DX003 (ip), vehicle: saline sonified 103 % of control

CCOC(=O)N\C(N)=N/N=C(C)\C=N\N=C(/N)NC(=O)OCC
inactive: dose: 15.0 mg/kg/injection, schedule: Q01DX Z (ip), vehicle: carboxymethylcellulose (CMC) 95 % of control | dose: 30.0 mg/kg/injection, schedule: Q01DX Z (ip), vehicle: carboxymethylcellulose (CMC) 101 % of control | dose: 60.0 mg/kg/injection, schedule: Q01DX Z (ip), vehicle: carboxymethylcellulose (CMC) 106 % of control | dose: 120.0 mg/kg/injection, schedule: Q01DX Z (ip), vehicle: carboxymethylcellulose (CMC) 97 % of control

c1ccc(Cc2nnc(Cc3ccccc3)nn2)cc1
inactive: dose: 100.0 mg/kg/injection, schedule: Q04DX002 (ip), vehicle: Klucel (hydroxypropylcellulose) (HPC) 91 % of control | dose: 200.0 mg/kg/injection, schedule: Q04DX002 (ip), vehicle: Klucel (hydroxypropylcellulose) (HPC) 102 % of control | dose: 400.0 mg/kg/injection, schedule: Q04DX002 (ip), vehicle: Klucel (hydroxypropylcellulose) (HPC) 105 % of control

Oc1ccccc1C1N(Cc2ccc(N(CCCl)CCCl)cc2Cl)CCCN1Cc1ccc(N(CCCl)CCCl)cc1Cl
inactive: [1] 96 % of control | [2] 90 % of control | [4] 94 % of control | [6] 102 % of control

O=C(COc1ccc(Cl)cc1C(=O)O)Nc1ccccc1
inactive: [3] 93 % of control | [5] 102 % of control | [7] 98 % of control

O=c1[nH]c(=S)[nH]c(=S)[nH]1
inactive: dose: 100.0 mg/kg/injection, schedule: Q01DX Z (ip), vehicle: methylcellulose (MC) 97 % of control | dose: 200.0 mg/kg/injection, schedule: Q01DX Z (ip), vehicle: methylcellulose (MC) 104 % of control
